What was measured:
Assay in all cases: relative viability (nuclei count vs DMSO), 5 days (fraction); higher = more cells survive
AZD1208 + Phenformin = compound: N[C@@H]1CCCN(c2c(/C=C3\SC(=O)NC3=O)cccc2-c2ccccc2)C1 [AZD1208] + N=C(N)NC(=N)NCCc1ccccc1 [Phenformin] (partner 250 µM)
Summary of the method: (§1)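 Dosing by pin tool came one day after lung cancer cell lines were seeded in 1536-well plates, using either one drug or a fixed anchor-drug dose plus five library-drug doses (not always all listed) in √10 steps. After 5 days, nuclei were counted on 4× images. Relative viability is treated-well nuclei count divided by vehicle-well nuclei count, and values are medians of duplicate plates.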

AZD1208 = compound: N[C@@H]1CCCN(c2c(/C=C3\SC(=O)NC3=O)cccc2-c2ccccc2)C1 [AZD1208]
Summary of the method: (§2)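 Vehicle-anchored 1536-well plates of lung cancer cell lines, held overnight at 37 °C, were pinned with five library-drug doses (not always all listed) spaced by √10. No medium change followed over the next 5 days, after which the cells were fixed, permeabilised and Hoechst-stained together and imaged at 4×. Nuclei were counted with MetaXpress, and viability is treated-well nuclei over vehicle-well nuclei, taken as a median across plates. Plates passed with control CV below 25% and at least one doubling.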

XMD14-99 = compound: CN1CCN(CC1)C2=CC(=C(C=C2)NC3=NC(=C(S3)C(=O)C4=C(C=CC=C4Cl)Cl)N)OC [XMD14-99]
Summary of the method: as §2

XMD14-99 + Navitoclax = compound: CN1CCN(CC1)C2=CC(=C(C=C2)NC3=NC(=C(S3)C(=O)C4=C(C=CC=C4Cl)Cl)N)OC [XMD14-99] + CC1(C)CCC(c2ccc(Cl)cc2)=C(CN2CCN(c3ccc(C(=O)NS(=O)(=O)c4ccc(N[C@H](CCN5CCOCC5)CSc5ccccc5)c(S(=O)(=O)C(F)(F)F)c4)cc3)CC2)C1 [Navitoclax] (partner 0.5 µM)
Summary of the method: as §1

Cell Line	relative viability (AZD1208 + Phenformin; first compound 0.08 µM)	relative viability (AZD1208 + Phenformin; first compound 0.253 µM)	relative viability (AZD1208 + Phenformin; first compound 0.8 µM)	relative viability (AZD1208 + Phenformin; first compound 2.53 µM)	relative viability (AZD1208 + Phenformin; first compound 8 µM)	relative viability (AZD1208; 0.08 µM)	relative viability (AZD1208; 0.253 µM)	relative viability (AZD1208; 0.8 µM)	relative viability (AZD1208; 2.53 µM)	relative viability (AZD1208; 8 µM)	relative viability (XMD14-99; 0.08 µM)	relative viability (XMD14-99; 0.8 µM)	relative viability (XMD14-99; 2.53 µM)	relative viability (XMD14-99; 8 µM)	relative viability (XMD14-99 + Navitoclax; first compound 0.08 µM)	relative viability (XMD14-99 + Navitoclax; first compound 0.8 µM)	relative viability (XMD14-99 + Navitoclax; first compound 2.53 µM)	relative viability (XMD14-99 + Navitoclax; first compound 8 µM)
NCI-H522	0.614	0.678	0.569	0.618	0.479	0.975	0.922	0.816	0.816	0.769	0.891	1.01	1.07	1	–	–	–	–
HCC-15	0.431	0.491	0.459	0.428	0.316	1.01	1.02	0.879	0.939	0.805	1.02	1.03	0.922	0.759	0.663	0.617	0.609	0.494
A-427	0.318	0.367	0.257	0.323	0.262	1.1	0.972	0.895	0.962	0.747	1.05	0.939	0.866	0.643	0.894	0.954	0.779	0.807
NCI-H23	0.793	0.828	0.627	0.798	0.609	0.968	1.08	0.902	0.886	0.842	1.01	0.996	0.911	0.685	0.782	0.874	0.744	0.748
NCI-H1734	0.392	0.426	0.336	0.293	0.264	0.887	0.989	0.874	0.841	0.647	0.969	0.969	0.922	0.754	0.805	0.816	0.765	0.654
NCI-H1993	0.538	0.468	0.522	0.471	0.488	0.931	0.779	0.808	0.818	0.733	0.89	0.987	0.872	0.806	0.978	0.922	0.796	0.694
PC-3 [JPC-3]	0.47	0.5	0.496	0.515	0.504	1.05	1.06	1.08	1.17	1.08	1.08	1.03	0.95	0.818	0.794	0.756	0.768	0.667
NCI-H1915	0.366	0.402	0.372	0.348	0.352	0.995	1.06	0.967	0.875	0.979	0.991	0.958	0.91	0.796	0.833	0.761	0.742	0.737
NCI-H1666	0.499	0.583	0.54	0.601	0.559	0.992	1.06	0.881	0.942	0.959	1	0.922	0.999	0.877	0.994	0.771	0.797	0.566
HCC-366	0.588	0.668	0.538	0.655	0.431	1	0.996	1.03	1.01	0.993	0.988	0.996	1.01	0.894	1.01	1.03	0.986	0.863
SK-MES-1	0.668	0.672	0.648	0.696	0.621	0.979	1.01	0.964	0.943	0.866	1.02	0.994	0.976	0.664	1.26	1.18	1.05	0.821
NCI-H727	0.359	0.497	0.514	0.532	0.524	0.891	0.886	0.777	0.755	0.827	1.03	0.815	0.846	0.567	0.399	0.349	0.339	0.219
RERF-LC-KJ	0.402	0.44	0.427	0.41	0.379	0.998	1.03	0.878	0.935	0.746	0.991	0.938	0.903	0.834	1.01	0.829	0.926	0.607
NCI-H1623	0.573	0.642	0.593	0.548	0.611	0.984	0.912	0.764	0.871	0.746	0.959	0.99	1.01	0.804	–	–	–	–
Calu-6	–	–	–	–	–	1	1.1	0.968	1.04	0.989	0.937	0.932	0.936	0.785	0.772	0.802	0.726	0.473
